Data from PubChem BioAssay AID1259407 (Chemical Carcinogenesis Research Information System (CCRIS), 2018).
Calls of active or inactive are those of the source. The rule behind the calls is not given here.

Tested on: CCRIS mutagenicity, Ames/micronucleus/aberration tests
Assay: CCRIS mutagenicity studies
[1] = Test System: AMES SALMONELLA TYPHIMURIUM, Strain/Indicator: TA98, Metabolic Activation: NONE, Method: PREINCUBATION
[2] = Test System: AMES SALMONELLA TYPHIMURIUM, Strain/Indicator: TA100, Metabolic Activation: NONE, Method: PREINCUBATION
[3] = Test System: AMES SALMONELLA TYPHIMURIUM, Strain/Indicator: TA1535, Metabolic Activation: NONE, Method: PREINCUBATION
[4] = Test System: AMES SALMONELLA TYPHIMURIUM, Strain/Indicator: TA1537, Metabolic Activation: NONE, Method: PREINCUBATION
[5] = Test System: AMES SALMONELLA TYPHIMURIUM, Strain/Indicator: TA98, Metabolic Activation: RAT, LIVER, S-9, PCB, Method: PREINCUBATION
[6] = Test System: AMES SALMONELLA TYPHIMURIUM, Strain/Indicator: TA98, Metabolic Activation: NONE, Method: STANDARD PLATE
[7] = Test System: AMES SALMONELLA TYPHIMURIUM, Strain/Indicator: TA98, Metabolic Activation: RAT LIVER S-9, PHENOBARBITAL AND BETA-NAPHTHOFLAVONE, Method: PREINCUBATION
[8] = Test System: AMES SALMONELLA TYPHIMURIUM, Strain/Indicator: TA100, Metabolic Activation: NONE, Method: STANDARD PLATE
[9] = Test System: AMES SALMONELLA TYPHIMURIUM, Strain/Indicator: TA100, Metabolic Activation: RAT LIVER S-9, PHENOBARBITAL AND BETA-NAPHTHOFLAVONE, Method: PREINCUBATION
[10] = Test System: AMES SALMONELLA TYPHIMURIUM, Strain/Indicator: TA1535, Metabolic Activation: RAT LIVER S-9, PHENOBARBITAL AND BETA-NAPHTHOFLAVONE, Method: PREINCUBATION
[11] = Test System: AMES SALMONELLA TYPHIMURIUM, Strain/Indicator: TA1537, Metabolic Activation: RAT LIVER S-9, PHENOBARBITAL AND BETA-NAPHTHOFLAVONE, Method: PREINCUBATION
[12] = Test System: AMES SALMONELLA TYPHIMURIUM, Strain/Indicator: TA1538, Metabolic Activation: NONE, Method: PREINCUBATION
[13] = Test System: AMES SALMONELLA TYPHIMURIUM, Strain/Indicator: TA1538, Metabolic Activation: RAT LIVER S-9, PHENOBARBITAL AND BETA-NAPHTHOFLAVONE, Method: PREINCUBATION
[14] = Test System: E.COLI, Strain/Indicator: WP2UVRA, Metabolic Activation: NONE, Method: PREINCUBATION
[15] = Test System: E.COLI, Strain/Indicator: WP2UVRA, Metabolic Activation: RAT LIVER S-9, PHENOBARBITAL AND BETA-NAPHTHOFLAVONE, Method: PREINCUBATION

Measured: mutagenic call

CCCCOB(OCCCC)OCCCC
inactive: Test System: AMES SALMONELLA TYPHIMURIUM, Strain/Indicator: TA98, Metabolic Activation: HAMSTER, LIVER, S-9, AROCLOR 1254, Method: PREINCUBATION inactive; negative | [1] inactive; negative | Test System: AMES SALMONELLA TYPHIMURIUM, Strain/Indicator: TA98, Metabolic Activation: RAT, LIVER, S-9, AROCLOR 1254, Method: PREINCUBATION inactive; negative | Test System: AMES SALMONELLA TYPHIMURIUM, Strain/Indicator: TA100, Metabolic Activation: HAMSTER, LIVER, S-9, AROCLOR 1254, Method: PREINCUBATION inactive; negative | [2] inactive; negative | Test System: AMES SALMONELLA TYPHIMURIUM, Strain/Indicator: TA100, Metabolic Activation: RAT, LIVER, S-9, AROCLOR 1254, Method: PREINCUBATION inactive; negative | Test System: AMES SALMONELLA TYPHIMURIUM, Strain/Indicator: TA1535, Metabolic Activation: HAMSTER, LIVER, S-9, AROCLOR 1254, Method: PREINCUBATION inactive; negative | [3] inactive; negative | Test System: AMES SALMONELLA TYPHIMURIUM, Strain/Indicator: TA1535, Metabolic Activation: RAT, LIVER, S-9, AROCLOR 1254, Method: PREINCUBATION inactive; negative | Test System: AMES SALMONELLA TYPHIMURIUM, Strain/Indicator: TA1537, Metabolic Activation: HAMSTER, LIVER, S-9, AROCLOR 1254, Method: PREINCUBATION inactive; negative | [4] inactive; negative | Test System: AMES SALMONELLA TYPHIMURIUM, Strain/Indicator: TA1537, Metabolic Activation: RAT, LIVER, S-9, AROCLOR 1254, Method: PREINCUBATION inactive; negative

C[C@@]12CCc3occc3[C@H]1CC[C@@]13C[C@@H](CC[C@H]12)[C@@](O)(CO)C3
inactive: Test System: AMES SALMONELLA TYPHIMURIUM, Strain/Indicator: TM677, Metabolic Activation: NONE, Method: PREINCUBATION inactive; negative | Test System: AMES SALMONELLA TYPHIMURIUM, Strain/Indicator: TM677, Metabolic Activation: RAT, LIVER, S-9, AROCLOR 1254, Method: PREINCUBATION inactive; negative

Cc1cc(Cc2ccc(N)c(C)c2)ccc1N
inactive: [1] inactive; negative | [5] inactive; negative | [2] inactive; negative | Test System: AMES SALMONELLA TYPHIMURIUM, Strain/Indicator: TA100, Metabolic Activation: RAT, LIVER, S-9, PCB, Method: PREINCUBATION inactive; negative

Nc1ccc2nc3c(N)cccc3nc2c1
active: [5] active; positive
inactive: [1] inactive; negative

c1ccc2cc3ccccc3cc2c1
inactive: Test System: AMES SALMONELLA TYPHIMURIUM, Strain/Indicator: TA97, Metabolic Activation: NONE, Method: STANDARD PLATE inactive; negative | [1] inactive; negative | [6] inactive; negative | [7] inactive; negative | Test System: AMES SALMONELLA TYPHIMURIUM, Strain/Indicator: TA98, Metabolic Activation: RAT, LIVER, S-9, AROCLOR 1254, Method: STANDARD PLATE inactive; negative | Test System: AMES SALMONELLA TYPHIMURIUM, Strain/Indicator: TA98, Metabolic Activation: RAT, LIVER, S-9, PCB, Method: STANDARD PLATE inactive; negative | [8] inactive; negative | [9] inactive; negative | Test System: AMES SALMONELLA TYPHIMURIUM, Strain/Indicator: TA100, Metabolic Activation: RAT, LIVER, S-9, AROCLOR 1254, Method: STANDARD PLATE inactive; negative | Test System: AMES SALMONELLA TYPHIMURIUM, Strain/Indicator: TA100, Metabolic Activation: RAT, LIVER, S-9, PCB, Method: STANDARD PLATE inactive; negative | [3] inactive; negative | [10] inactive; negative | [4] inactive; negative | [11] inactive; negative | [12] inactive; negative | [13] inactive; negative | Test System: E. COLI, Strain/Indicator: WP2 UVRA, Metabolic Activation: HAMSTER, LIVER, S-9, AROCLOR 1254, Method: STANDARD PLATE inactive; negative | Test System: E. COLI, Strain/Indicator: WP2 UVRA, Metabolic Activation: HAMSTER, LIVER, S-9, Method: STANDARD PLATE inactive; negative | Test System: E. COLI, Strain/Indicator: WP2 UVRA, Metabolic Activation: MOUSE, LIVER, S-9, AROCLOR 1254, Method: STANDARD PLATE inactive; negative | Test System: E. COLI, Strain/Indicator: WP2 UVRA, Metabolic Activation: MOUSE, LIVER, S-9, Method: STANDARD PLATE inactive; negative | Test System: E. COLI, Strain/Indicator: WP2 UVRA, Metabolic Activation: NONE, Method: STANDARD PLATE inactive; negative | Test System: E. COLI, Strain/Indicator: WP2 UVRA, Metabolic Activation: RAT, LIVER, S-9, AROCLOR 1254, Method: STANDARD PLATE inactive; negative | Test System: E. COLI, Strain/Indicator: WP2 UVRA, Metabolic Activation: RAT, LIVER, S-9, Method: STANDARD PLATE inactive; negative | [14] inactive; negative | [15] inactive; negative | Test System: MOUSE LYMPHOMA, Strain/Indicator: L5178Y (TK+/TK-), Metabolic Activation: NONE, Method: SUSPENSION/PLATE inactive; negative
active: End Point: In vitro chromosomal aberrations, Test System: Chinese hamster lung (CHL/IU) cells, Metabolic Activation: Rat, Liver, S9, Phenobarbital and 5,6-benzoflavone active; positive (structural changes and ploidy). weak response for ploidy. | Test System: AMES SALMONELLA TYPHIMURIUM, Strain/Indicator: TA97, Metabolic Activation: RAT, LIVER, S-9, PCB, Method: STANDARD PLATE active; positive | Test System: MOUSE LYMPHOMA, Strain/Indicator: L5178Y (TK+/TK-), Metabolic Activation: RAT, LIVER, S-9, AROCLOR 1254, Method: SUSPENSION/PLATE active; positive | Test System: MOUSE LYMPHOMA, Strain/Indicator: L5178Y (TK+/TK-), Metabolic Activation: RAT, LIVER, S-9, Method: SUSPENSION/PLATE active; positive

c1ccc2c(c1)-c1cc3ccccc3cc1[C@H]1O[C@@H]21
active: [1] active; positive | [6] active; positive | [8] active; positive | Test System: CHINESE HAMSTER V-79, Strain/Indicator: V-79/8-AZAGUANINE, Metabolic Activation: NONE, Method: STANDARD PLATE active; positive | Test System: UDS HUMAN FIBROBLASTS, Strain/Indicator: THY INCORP (NON-S-PHASE), Metabolic Activation: NONE, Method: AUTORADIOGRAPHY active; positive

CC(C)(c1ccccc1)c1ccc(O)cc1
inactive: [1] inactive; negative | [7] inactive; negative | [2] inactive; negative | [9] inactive; negative | [3] inactive; negative | [10] inactive; negative | [4] inactive; negative | [11] inactive; negative | [12] inactive; negative | [13] inactive; negative | [14] inactive; negative | [15] inactive; negative

CC#CC(OC(=O)NC1CCCCC1)(c1ccccc1)c1ccccc1
active: [8] active; positive
